Measurements reported in US12319709B2, “Diaryl trehalose compounds and uses thereof” (THE UNIVERSITY OF MONTANA, priority 2018, dated 2025).

test system: RAW264.7 cells; test: Cytokine (TNFα) response of mouse macrophage cell line; Table 2 'Murine'; format: cell-based; set-up: Maximum cytokine response Murine: unit not given here; settings: NR = no response
Description: Compounds were also tested in a mouse macrophage cell line (FIG. 4B). RAW264.7 cells were subjected to increasing concentrations of the compounds and assessed for production of the cytokine TNFα.

| SMILES | Maximum cytokine response Murine | Minimal Effective Concentration Murine [µM] |
| --- | --- | --- |
| COc1cccc(C(=O)OC[C@H]2O[C@H](O[C@H]3O[C@H](COC(=O)c4cccc(OC)c4OC)[C@@H](O)[C@H](O)[C@H]3O)[C@H](O)[C@@H](O)[C@@H]2O)c1OC [UM1013] | 3 | 37 |
| CCc1cc(CC)cc(C(=O)OCC2OC(OC3OC(COC(=O)c4cc(CC)cc(CC)c4)C(O)C(O)C3O)C(O)C(O)C2O)c1 (stereo not shown) [UM1017] | 2.5 | 4.1 |
| O=C(OC[C@H]1O[C@H](O[C@H]2O[C@H](COC(=O)c3ccccc3-c3ccccc3)[C@@H](O)[C@H](O)[C@H]2O)[C@H](O)[C@@H](O)[C@@H]1O)c1ccccc1-c1ccccc1 [UM1039] | 0.9 | 33 |
| O=C(OC[C@H]1O[C@H](O[C@H]2O[C@H](COC(=O)c3cccc(-c4ccccc4)c3)[C@@H](O)[C@H](O)[C@H]2O)[C@H](O)[C@@H](O)[C@@H]1O)c1cccc(-c2ccccc2)c1 [UM1040] | 0.9 | 100 |
| COc1ccc(C(F)(F)F)cc1C(=O)OC[C@H]1O[C@H](O[C@H]2O[C@H](COC(=O)c3cc(C(F)(F)F)ccc3OC)[C@@H](O)[C@H](O)[C@H]2O)[C@H](O)[C@@H](O)[C@@H]1O [UM1045] | 1.3 | 0.05 |
| O=C(OC[C@H]1O[C@H](O[C@H]2O[C@H](COC(=O)c3cccc(-c4cccc(O)c4)c3)[C@@H](O)[C@H](O)[C@H]2O)[C@H](O)[C@@H](O)[C@@H]1O)c1cccc(-c2cccc(O)c2)c1 [UM1057] | 1.8 | 33 |
| Cc1ccc(-c2cccc(C(=O)OC[C@H]3O[C@H](O[C@H]4O[C@H](COC(=O)c5cccc(-c6ccc(C)cc6)c5)[C@@H](O)[C@H](O)[C@H]4O)[C@H](O)[C@@H](O)[C@@H]3O)c2)cc1 [UM1058] | 2.5 | 33 |
| COc1cc(-c2cccc(C(=O)OC[C@H]3O[C@H](O[C@H]4O[C@H](COC(=O)c5cccc(-c6ccc(F)c(OC)c6)c5)[C@@H](O)[C@H](O)[C@H]4O)[C@H](O)[C@@H](O)[C@@H]3O)c2)ccc1F [UM1059] | 1.8 | 33 |
| O=C(OC[C@H]1O[C@H](O[C@H]2O[C@H](COC(=O)c3cc(O)cc(-c4ccccc4)c3)[C@@H](O)[C@H](O)[C@H]2O)[C@H](O)[C@@H](O)[C@@H]1O)c1cc(O)cc(-c2ccccc2)c1 [UM1061] | 3 | 100 |
| O=C(OC[C@H]1O[C@H](O[C@H]2O[C@H](COC(=O)c3cccc(-c4ccccc4)c3O)[C@@H](O)[C@H](O)[C@H]2O)[C@H](O)[C@@H](O)[C@@H]1O)c1cccc(-c2ccccc2)c1O [UM1063] | 2.5 | 100 |
| O=C(CCc1ccc(O)c(-c2ccccc2)c1)OC[C@H]1O[C@H](O[C@H]2O[C@H](COC(=O)CCc3ccc(O)c(-c4ccccc4)c3)[C@@H](O)[C@H](O)[C@H]2O)[C@H](O)[C@@H](O)[C@@H]1O [UM1064] | 2.5 | 100 |
| COc1ccc(C(=O)OC[C@H]2O[C@H](O[C@H]3O[C@H](COC(=O)c4ccc(OC)cc4C(F)(F)F)[C@@H](O)[C@H](O)[C@H]3O)[C@H](O)[C@@H](O)[C@@H]2O)c(C(F)(F)F)c1 [UM1067] | 1.5 | 100 |
| CN(C)c1cccc(C(=O)OC[C@H]2O[C@H](O[C@H]3O[C@H](COC(=O)c4cccc(N(C)C)c4)[C@@H](O)[C@H](O)[C@H]3O)[C@H](O)[C@@H](O)[C@@H]2O)c1 [UM1076] | 1.3 | 3.7 |
| CCOc1cc(OCC)cc(C(=O)NC[C@H]2O[C@H](O[C@H]3O[C@H](CNC(=O)c4cc(OCC)cc(OCC)c4)[C@@H](O)[C@H](O)[C@H]3O)[C@H](O)[C@@H](O)[C@@H]2O)c1 [UM1105] | 11 | 3 |
| CC(C)(C)c1ccc(O)c(C(=O)NC[C@H]2O[C@H](O[C@H]3O[C@H](CNC(=O)c4cc(C(C)(C)C)ccc4O)[C@@H](O)[C@H](O)[C@H]3O)[C@H](O)[C@@H](O)[C@@H]2O)c1 [UM1106] | 11 | 3 |
| Cc1cc(C)cc(C(=O)NC[C@H]2O[C@H](O[C@H]3O[C@H](CNC(=O)c4cc(C)cc(C)c4)[C@@H](O)[C@H](O)[C@H]3O)[C@H](O)[C@@H](O)[C@@H]2O)c1 [UM1108] | 33 | 3 |
| CCc1cc(CC)cc(C(=O)NC[C@H]2O[C@H](O[C@H]3O[C@H](CNC(=O)c4cc(CC)cc(CC)c4)[C@@H](O)[C@H](O)[C@H]3O)[C@H](O)[C@@H](O)[C@@H]2O)c1 [UM1109] | 0.4 | 3.2 |
| O=C(NC[C@H]1O[C@H](O[C@H]2O[C@H](CNC(=O)c3ccccc3C(F)(F)F)[C@@H](O)[C@H](O)[C@H]2O)[C@H](O)[C@@H](O)[C@@H]1O)c1ccccc1C(F)(F)F [UM1112] | 2 | 100 |
| Cc1cc(C)c(C)c(C(=O)OC[C@H]2O[C@H](O[C@H]3O[C@H](COC(=O)c4c(C)c(C)cc(C)c4C)[C@@H](O)[C@H](O)[C@H]3O)[C@H](O)[C@@H](O)[C@@H]2O)c1C [UM1113] | 11 | 2.5 |
| Cc1cccc(C)c1C(=O)OC[C@H]1O[C@H](O[C@H]2O[C@H](COC(=O)c3c(C)cccc3C)[C@@H](O)[C@H](O)[C@H]2O)[C@H](O)[C@@H](O)[C@@H]1O [UM1114] | 11 | 2.5 |
| Cc1cc(C)c(C(=O)OC[C@H]2O[C@H](O[C@H]3O[C@H](COC(=O)c4c(C)cc(C)cc4C)[C@@H](O)[C@H](O)[C@H]3O)[C@H](O)[C@@H](O)[C@@H]2O)c(C)c1 [UM1115] | 11 | 3.3 |
| O=C(OC[C@H]1O[C@H](O[C@H]2O[C@H](CO)[C@@H](O)[C@H](O)[C@H]2O)[C@H](O)[C@@H](O)[C@@H]1O)c1ccc([N+](=O)[O-])cc1[N+](=O)[O-] [UM1119] | 11 | 2.2 |
| O=C(OC[C@H]1O[C@H](O[C@H]2O[C@H](CO)[C@@H](O)[C@H](O)[C@H]2O)[C@H](O)[C@@H](O)[C@@H]1O)c1ccccc1C(F)(F)F [UM1121] | 11 | 2.5 |
